In publication PMC3038857, “Using Nuclear Receptor Activity to Stratify Hepatocarcinogens” (PLoS ONE, 2011):
Where two headings read alike, the source gives them in different places.

Columns and labels:
[1] = target: T1, ESR1 (estrogen receptor 1) (Homo sapiens, UniProt P03372); test: ATG_ERa_TRANS: Factorial reporter gene assay (HepG2); assay type: cell-based; conditions: HepG2
T1 construct: expressed in transfected cells; host or cells: HepG2
Procedure: (§1) A multiple reporter transcription unit (MRTU) library consisting of 48 transcription factor binding sites was transfected into the HepG2 human liver hepatoma cell line. In addition to the cis-acting reporter genes (CIS), a modification of the approach was used to generate a trans-system (TRANS) with a mammalian one-hybrid assay consisting of an additional 25 MRTU library reporting the activity of nuclear receptor super-family members. […] These assays were performed by Attagene Inc. (Morrisville NC) under contract to EPA.
(§2) In addition to the cis-acting reporter genes (CIS), a modification of the approach was used to generate a trans-system (TRANS) with a mammalian one-hybrid assay consisting of an additional 25 MRTU library reporting the activity of nuclear receptor super-family members. […] Chemicals were then tested in the CIS and TRANS assays at seven concentrations starting at the MTC and followed by three-fold serial dilutions. These assays were performed by Attagene Inc. (Morrisville NC) under contract to EPA. Detailed description of the methods, data and analysis methods for this dataset will be presented in a separate publication.

[2] = test system: CYP1A1; test: CLZD_CYP1A1: Change in expression of CYP1A1 (primary human hepatocytes); assay type: cell-based; conditions: 24 hr
In short: (§3)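 Read-out: mRNA change by multiplexed quantitative nuclease protection assay. Primary human hepatocytes; 5 concentrations, 0.004-40 µM; exposures 6, 24, 48 hr.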

[3] = test system: CYP1A2; test: CLZD_CYP1A2: Change in expression of CYP1A2 (primary human hepatocytes); assay type: cell-based; conditions: 24 hr
In short: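 Primary human hepatocyte cultures were exposed to test chemicals at 5 concentrations (0.004-40 µM) for 6, 24 or 48 hr.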

[4] = test system: CYP2B6; test: CLZD_CYP2B6: Change in expression of CYP2B6 (primary human hepatocytes); assay type: cell-based; conditions: 24 hr
In short: as §3

[5] = test system: CYP3A4; test: CLZD_CYP3A4: Change in expression of CYP3A4 (primary human hepatocytes); assay type: cell-based; conditions: 24 hr
In short: as §3

[6] = target: T2, PXR Human (NR1I2) (Homo sapiens, UniProt O75469); test: NCGC_PXR_Agonist_human: GAL4 BLAM Reporter gene assay: PXR Human; assay type: cell-based; conditions: agonist mode
T2 sequence (O75469 146-434 limits assumed): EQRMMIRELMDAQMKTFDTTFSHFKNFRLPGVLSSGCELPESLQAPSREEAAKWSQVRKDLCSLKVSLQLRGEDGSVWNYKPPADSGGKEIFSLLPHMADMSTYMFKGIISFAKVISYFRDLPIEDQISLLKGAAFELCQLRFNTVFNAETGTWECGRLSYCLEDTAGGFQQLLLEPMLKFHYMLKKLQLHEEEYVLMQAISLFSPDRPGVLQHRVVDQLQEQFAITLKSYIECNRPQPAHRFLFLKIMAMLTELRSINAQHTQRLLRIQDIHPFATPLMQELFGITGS
Procedure: These assays measure binding constants and enzyme inhibition values for nuclear receptors. The targets include [drawing 67] , [drawing 68] , [drawing 69] , [drawing 70] , [drawing 71] , [drawing 72] , [drawing 73] , [drawing 74] , [drawing 75] and [drawing 76] . Each of the nuclear receptor targets was measured in agonist mode. Assays were run at the NIH Chemical Genomics Center (Rockville, MD).
Cell-based HTS Assays: These assays measuring binding constants and enzyme inhibition values for nuclear receptors. The targets include AR, ER, FXR, LXR, PPARα, PPARδ, PPARγ, RXRα, RXRβ and PXR. Each of the nuclear receptor targets was measured in both agonist and antagonist mode, but the antagonist data is still undergoing analysis due to possible interference between cytotoxicity and assay activity, so antagonist mode data were not used in the present analysis. Assays were run at the NIH Chemical Genomics Center (Rockville, MD) as part of the Tox21 collaboration. […] The R^2 was required to be ≥0.5. Values where only the highest concentration exceeded 50% activity were excluded to eliminate weak or false positives. Detailed description of the methods, data and analysis methods for this dataset will be presented in a separate publication.

[7] = test system: Mouse Liver; conditions: ref ToxRefDB, cited from earlier work
[8] = test system: Mouse Liver; conditions: ref ToxRefDB, cited from earlier work; remark: listed apart in the source
[9] = target: T3, PXR (NR1I2) (Homo sapiens, UniProt O75469); test: ATG_PXR_TRANS: Factorial reporter gene assay (HepG2); assay type: cell-based; set-up: endogenous in cells; host or cells: HepG2; conditions: HepG2
T3 sequence (O75469 1-434): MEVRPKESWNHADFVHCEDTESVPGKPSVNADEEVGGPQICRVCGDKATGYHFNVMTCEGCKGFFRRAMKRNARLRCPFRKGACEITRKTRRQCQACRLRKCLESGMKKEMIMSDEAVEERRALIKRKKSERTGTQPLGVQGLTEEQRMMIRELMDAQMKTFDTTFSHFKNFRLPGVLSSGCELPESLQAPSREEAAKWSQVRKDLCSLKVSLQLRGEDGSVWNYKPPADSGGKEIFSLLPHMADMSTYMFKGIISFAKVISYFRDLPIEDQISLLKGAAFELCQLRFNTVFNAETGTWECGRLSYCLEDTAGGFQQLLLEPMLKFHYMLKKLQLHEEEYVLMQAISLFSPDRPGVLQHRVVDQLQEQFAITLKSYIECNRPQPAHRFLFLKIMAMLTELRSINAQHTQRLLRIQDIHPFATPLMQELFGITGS
In short: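 HepG2 cells transfected with multiplexed reporter libraries: cis-acting binding-site reporters (CIS) and a one-hybrid nuclear-receptor trans system (TRANS). Chemicals tested at seven concentrations, starting at the maximum tolerated concentration with three-fold serial dilutions.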

[10] = target: T3, PXR (NR1I2); test: ATG_PXRE_CIS: Factorial reporter gene assay (HepG2); assay type: cell-based; set-up: endogenous in cells; host or cells: HepG2; conditions: HepG2
In short: (§4)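 HepG2 cells were transfected with a multiple reporter transcription unit (MRTU) library of 48 transcription factor binding sites for the cis-acting PXRE assay. The ERRg, FXR and PPARg assays used a trans mammalian one-hybrid system with a further 25-unit nuclear receptor MRTU library. Chemicals were tested at seven concentrations, from the MTC downward in three-fold steps.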

[11] = test system: ABCB1; test: CLZD_ABCB1: Change in expression of ABCB1 (primary human hepatocytes); assay type: cell-based; conditions: 24 hr
Procedure: This is a collection of multiplexed gene expression assays focused on Phase I and II xenobiotic metabolizing enzymes and transporters. Human primary cell cultures were treated with chemicals at 5 concentrations (0.004-40 [drawing 42] M) for 6, 24 and 48 hr. Concentration- and time-response profiles of chemicals were measured by the expression of key nuclear receptor target genes, activities of CYP1A enzymes (EROD), and cell morphology. Fourteen gene targets were monitored by quantitative nuclease protection assay including: six representative cytochrome P-450 genes, four hepatic transporters, three Phase II conjugating enzymes, and one endogenous metabolism gene involved in cholesterol synthesis. The target genes associated with nuclear receptor pathways are as follows: [drawing 43] and [drawing 44] with [drawing 45]; [drawing 46] , [drawing 47] , [drawing 48] , [drawing 49] , [drawing 50] and [drawing 51] with [drawing 52]; [drawing 53] , [drawing 54] , [drawing 55] and [drawing 56] with [drawing 57]; [drawing 58] with [drawing 59]; and [drawing 60] with [drawing 61] . Assays were run in primary human hepatocyte cultures by CellzDirect Invitrogen Inc. (Durham, NC), in collaboration with EPA.
Multiplexed Gene Expression in Human Primary Hepatocytes: This is a collection of multiplexed gene expression assays focused on Phase I and II metabolic enzymes and transporters. […] Fourteen gene targets were monitored by quantitative nuclease protection assay: six representative cytochrome P450 genes, four hepatic transporters, three Phase II conjugating enzymes, and one endogenous metabolism gene involved in cholesterol synthesis. Cells were exposed at 5 concentrations (0.004-40 µM) for 6, 24 or 48 hr. Gene targets are sentinels for five nuclear receptor signaling pathways: AhR, CAR, PXR, FXR, and PPARα. All gene are associated with nuclear receptor pathways: CYP1A1 and CYP1A2 with AHR; ABCB1, ABCG2, CYP2B6, CYP2C9, CYP2C19 and UGT1A1 with CAR; CYP3A4, GSTA2, SLCO1B1 and SULT2A1 with PXR; HMGCS2 with PPARA; and ABCB11 with FXR. […] Detailed description of the methods, data and analysis methods for this dataset will be presented in a separate publication.

[12] = test system: Rat Liver; conditions: ref ToxRefDB, cited from earlier work
[13] = test system: Rat Liver; conditions: ref ToxRefDB, cited from earlier work; remark: listed apart in the source
[14] = test system: Rat Liver; conditions: ref ToxRefDB, cited from earlier work; remark: listed apart in the source
[15] = target: T4, AHR (aryl hydrocarbon receptor) (Homo sapiens, UniProt P35869); test: ATG_Ahr_CIS: Factorial reporter gene assay (multiplexed transcription reporter, HepG2); assay type: cell-based; conditions: HepG2
T4 construct: endogenous in cells; host or cells: HepG2
T4 sequence (P35869 11-848): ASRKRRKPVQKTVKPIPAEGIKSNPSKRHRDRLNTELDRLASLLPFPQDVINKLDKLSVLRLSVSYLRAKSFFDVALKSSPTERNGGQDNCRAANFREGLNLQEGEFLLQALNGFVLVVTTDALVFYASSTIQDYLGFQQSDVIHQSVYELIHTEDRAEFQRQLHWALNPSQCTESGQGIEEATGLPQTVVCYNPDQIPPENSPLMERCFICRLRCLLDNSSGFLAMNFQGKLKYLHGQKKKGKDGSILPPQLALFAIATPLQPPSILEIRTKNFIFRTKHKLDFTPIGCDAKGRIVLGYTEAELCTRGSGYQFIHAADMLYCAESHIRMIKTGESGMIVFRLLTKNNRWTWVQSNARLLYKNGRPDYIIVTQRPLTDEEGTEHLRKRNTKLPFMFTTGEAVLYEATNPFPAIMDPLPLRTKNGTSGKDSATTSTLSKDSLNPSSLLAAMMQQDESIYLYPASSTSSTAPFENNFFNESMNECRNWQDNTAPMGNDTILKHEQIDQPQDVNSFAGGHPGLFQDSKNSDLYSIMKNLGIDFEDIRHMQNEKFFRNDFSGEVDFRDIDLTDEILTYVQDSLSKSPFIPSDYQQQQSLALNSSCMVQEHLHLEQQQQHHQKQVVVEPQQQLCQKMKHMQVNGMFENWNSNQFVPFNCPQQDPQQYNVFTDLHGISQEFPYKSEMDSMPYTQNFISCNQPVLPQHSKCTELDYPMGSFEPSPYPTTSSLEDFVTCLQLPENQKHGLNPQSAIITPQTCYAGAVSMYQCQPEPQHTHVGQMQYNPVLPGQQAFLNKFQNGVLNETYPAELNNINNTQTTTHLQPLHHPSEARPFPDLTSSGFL
Procedure: as §1, §2

[16] = target: T3, PXR (NR1I2); test: NVS_NR_hPXR: Human PXR Fluormone PXR (SXR) green (cell-free HTS); assay type: binding
In short: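 Responses were normalized to same-plate solvent controls as percent of neutral control. AC50 values came from Hill-equation fits of concentration-response curves.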

[17] = test system: Mouse Liver; conditions: ref ToxRefDB, cited from earlier work; remark: listed apart in the source
[18] = target: T5, PPARG (peroxisome proliferator-activated receptor gamma) (Homo sapiens, UniProt P37231); test: ATG_PPARg_TRANS: Factorial reporter gene assay (HepG2); assay type: cell-based; conditions: HepG2
T5 construct: expressed in transfected cells; host or cells: HepG2
T5 sequence (P37231 1-505): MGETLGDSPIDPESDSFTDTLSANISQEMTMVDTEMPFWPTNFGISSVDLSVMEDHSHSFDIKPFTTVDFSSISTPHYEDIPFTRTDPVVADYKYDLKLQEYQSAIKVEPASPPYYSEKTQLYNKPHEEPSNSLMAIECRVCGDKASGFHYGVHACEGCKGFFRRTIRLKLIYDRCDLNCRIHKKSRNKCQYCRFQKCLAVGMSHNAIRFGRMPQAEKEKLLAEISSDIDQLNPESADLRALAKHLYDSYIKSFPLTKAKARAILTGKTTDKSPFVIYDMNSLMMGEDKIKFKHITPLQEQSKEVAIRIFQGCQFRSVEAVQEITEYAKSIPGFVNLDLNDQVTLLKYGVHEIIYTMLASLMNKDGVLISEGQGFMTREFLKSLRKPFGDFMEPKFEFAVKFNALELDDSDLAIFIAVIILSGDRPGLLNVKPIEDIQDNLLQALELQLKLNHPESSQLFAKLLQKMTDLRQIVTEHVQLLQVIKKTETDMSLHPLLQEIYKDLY
In short: as §4

T1 sequence (P03372 whole entry): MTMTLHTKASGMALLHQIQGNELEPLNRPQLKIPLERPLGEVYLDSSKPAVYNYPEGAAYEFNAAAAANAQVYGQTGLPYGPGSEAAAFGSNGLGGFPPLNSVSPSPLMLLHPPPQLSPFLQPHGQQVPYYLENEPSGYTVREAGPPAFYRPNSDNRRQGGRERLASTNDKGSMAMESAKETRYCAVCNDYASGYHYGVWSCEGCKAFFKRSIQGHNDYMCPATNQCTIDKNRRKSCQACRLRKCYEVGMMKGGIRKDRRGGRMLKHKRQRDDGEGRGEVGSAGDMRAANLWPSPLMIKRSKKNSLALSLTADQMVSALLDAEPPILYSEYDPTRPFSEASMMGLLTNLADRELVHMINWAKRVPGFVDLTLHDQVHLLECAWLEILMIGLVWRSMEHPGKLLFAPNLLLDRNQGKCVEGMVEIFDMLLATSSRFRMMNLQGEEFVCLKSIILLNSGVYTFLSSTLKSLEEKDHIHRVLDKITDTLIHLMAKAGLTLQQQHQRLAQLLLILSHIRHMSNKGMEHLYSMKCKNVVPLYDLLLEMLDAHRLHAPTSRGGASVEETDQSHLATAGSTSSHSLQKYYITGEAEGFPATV

SMILES	ATG_ERa_TRANS [1]	CLZD_CYP1A1_24 [2]	CLZD_CYP1A2_24 [3]	CLZD_CYP2B6_24 [4]	CLZD_CYP3A4_24 [5]	CHR_Mouse_Liver_1_AnyLesion ([7]; mouse, chronic study)	CHR_Mouse_Liver_2_PreneoplasticLesion ([8]; mouse, chronic study)	ATG_PXR_TRANS [9]	ATG_PXRE_CIS [10]	CHR_Rat_Liver_1_AnyLesion ([12]; rat, chronic study)	CHR_Rat_Liver_2_PreneoplasticLesion ([13]; rat, chronic study)	CHR_Rat_Liver_3_NeoplasticLesion ([14]; rat, chronic study)	NVS_NR_hPXR [16]	further results
CCOc1cc(Oc2ccc(C(F)(F)F)cc2Cl)ccc1[N+](=O)[O-] [r233]	5.102	5.52	5.409	5.028	5.072	6	6	4.699	4.432					NCGC_PXR_Agonist_human [6]: 4.683
CC(C)(C)[C@H](O)[C@H](Cc1ccc(Cl)cc1)n1cncn1 [r235]		5.242		5.403		6			4.824	6	0	0		CLZD_ABCB1_24 [11]: 5.316
CC1(C)C(C=C(Cl)Cl)C1C(=O)OCc1cccc(Oc2ccccc2)c1 (stereo not drawn) [r242]	4.523			4.991	5.668	6	6		4.959	6	0	0	4.444	ATG_Ahr_CIS [15]: 4.125; CHR_Mouse_Liver_3_NeoplasticLesion ([17]; mouse, chronic study): 6
CCCCC(CC)CN1C(=O)C2C3C=CC(C3)C2C1=O (stereo not drawn) [row 212]	4.328	4.883	5.284	5.005	4.752			4.745	5.06				4.582	ATG_PPARg_TRANS [18]: 4.284; CHR_Mouse_Liver_1_AnyLesion ([7]; chronic mouse study, liver): 6; CHR_Mouse_Liver_2_PreneoplasticLesion ([8]; chronic mouse study, liver): 6; CHR_Mouse_Liver_3_NeoplasticLesion ([17]; chronic mouse study, liver): 6; CHR_Rat_Liver_1_AnyLesion ([12]; chronic rat study, liver): 6; CHR_Rat_Liver_2_PreneoplasticLesion ([13]; chronic rat study, liver): 6; CHR_Rat_Liver_3_NeoplasticLesion ([14]; chronic rat study, liver): 0
